According to patent publication US9718790B2, “Triazine derivative and pharmaceutical composition having an analgesic activity comprising the same” (SHIONOGI & CO., LTD., priority 2010, dated 2017):

Target: human P2X3 receptor (Homo sapiens (Human), UniProt P56373)
Assay: Evaluation of human P2X3 receptor inhibitory activity (Fluo-3 calcium fluorescence, FDSS 3000, ATP stimulation);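 note: stimulus was 50 nM ATP with fluorescence followed for 3 min, and the response per well was peak post-ATP fluorescence divided by the reading at measurement start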
Format: cell-based
[1] = C6BU-1 cells stably expressing human P2X3 receptor
[2] = human P2X3 receptor, Test Example 1

Sequence of human P2X3 receptor (P56373 whole entry): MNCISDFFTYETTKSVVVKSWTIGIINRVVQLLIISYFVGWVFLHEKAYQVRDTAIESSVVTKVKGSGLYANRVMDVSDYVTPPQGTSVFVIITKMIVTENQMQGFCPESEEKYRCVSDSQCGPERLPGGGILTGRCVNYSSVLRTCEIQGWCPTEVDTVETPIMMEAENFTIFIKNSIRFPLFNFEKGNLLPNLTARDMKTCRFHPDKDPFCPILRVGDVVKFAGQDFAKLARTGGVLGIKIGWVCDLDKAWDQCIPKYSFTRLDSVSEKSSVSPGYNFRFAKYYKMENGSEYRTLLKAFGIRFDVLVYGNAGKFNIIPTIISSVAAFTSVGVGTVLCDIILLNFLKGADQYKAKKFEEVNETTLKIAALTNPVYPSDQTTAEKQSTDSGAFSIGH

| SMILES | IC50 [1] [µM] | IC50 [2] [µM] |
| --- | --- | --- |
| COC(=O)[C@@H](C)[C@@H](C)n1c(=O)[nH]/c(=N\c2ccc(OC3CCC3)cc2)n(Cc2ccc(Cl)cc2)c1=O [Compound I-1452] | 0.014 | – |
| COC(=O)[C@@H](C)[C@@H](C)n1c(=O)[nH]/c(=N\c2ccc(OC3CCC3)cc2)n(Cc2ccc(C)cc2)c1=O [Compound I-1453] | 0.013 | – |
| COC(=O)[C@@H](C)[C@@H](C)n1c(=O)[nH]/c(=N\c2ccc(N3CCCCC3)cc2)n(Cc2ccc(Cl)cc2)c1=O [Compound I-1454] | 0.023 | – |
| COC(=O)[C@@H](C)[C@@H](C)n1c(=O)[nH]/c(=N\c2ccc(N3CCCCC3)cc2)n(Cc2ccc(C)cc2)c1=O [Compound I-1455] | 0.032 | – |
| C[C@H](C(=O)O)[C@@H](C)n1c(=O)[nH]/c(=N\c2ccc(OC3CCC3)cc2)n(Cc2ccc(Cl)cc2)c1=O [Compound I-1456] | 0.014 | – |
| Cc1ccc(Cn2c(=O)n([C@H](C)[C@H](C)C(=O)O)c(=O)[nH]/c2=N\c2ccc(OC3CCC3)cc2)cc1 [Compound I-1457] | 0.014 | – |
| C[C@H](C(=O)O)[C@@H](C)n1c(=O)[nH]/c(=N\c2ccc(N3CCCCC3)cc2)n(Cc2ccc(Cl)cc2)c1=O [Compound I-1458] | 0.025 | – |
| Cc1ccc(Cn2c(=O)n([C@H](C)[C@H](C)C(=O)O)c(=O)[nH]/c2=N\c2ccc(N3CCCCC3)cc2)cc1 [Compound I-1459] | 0.034 | – |
| COC(=O)[C@@H](C)Cn1c(=O)[nH]/c(=N\c2ccc(C3CC3)cc2)n(Cc2ccc(C)cc2)c1=O [Compound I-1460] | 0.272 | – |
| CC(C)Oc1ccc(/N=c2\[nH]c(=O)n(CCC(=O)O)c(=O)n2CC2CCC3(CC2)CC3)cc1Cl [Compound I-1461] | 0.025 | – |
| Cc1ccc(Cn2c(=O)n(CC(C)(C)C(=O)O)c(=O)[nH]/c2=N\c2ccc(CC(C)C)c(Cl)c2)cc1 [Compound I-1462] | 0.003 | – |
| COC(=O)[C@@H](C)Cn1c(=O)[nH]/c(=N\c2ccc(CC(C)C)c(Cl)c2)n(Cc2ccc(C)nc2)c1=O [Compound I-1464] | 0.07 | – |
| CCc1oc2ccc(/N=c3\[nH]c(=O)n(C[C@H](C)C(=O)O)c(=O)n3Cc3ccc(Cl)cc3)cc2c1C [Compound I-1465] | 0.006 | – |
| CC1Cc2cc(/N=c3\[nH]c(=O)n(C[C@H](C)C(=O)O)c(=O)n3Cc3ccc(Cl)cc3)ccc2O1 (stereo partly shown) [Compound I-1466] | 0.121 | – |
| Cc1nc2ccc(/N=c3\[nH]c(=O)n([C@H](C)[C@H](C)C(=O)O)c(=O)n3Cc3ccc(Cl)cc3)cc2s1 [Compound I-1467] | 0.012 | – |
| Cc1ccc(Cn2c(=O)n([C@H](C)[C@H](C)C(=O)O)c(=O)[nH]/c2=N\c2ccc3nc(C)sc3c2)cc1 [Compound I-1468] | 0.01 | – |
| Cc1nc2ccc(/N=c3\[nH]c(=O)n([C@@H](C)[C@@H](C)C(=O)O)c(=O)n3Cc3ccc(Cl)cc3)cc2s1 [Compound I-1469] | 0.009 | – |
| Cc1ccc(Cn2c(=O)n([C@@H](C)[C@@H](C)C(=O)O)c(=O)[nH]/c2=N\c2ccc3nc(C)sc3c2)cc1 [Compound I-1470] | 0.01 | – |
| Cc1ccc(Cn2c(=O)n(C[C@H](C)C(=O)O)c(=O)[nH]/c2=N\c2ccc3nc(C)sc3c2)cc1 [Compound I-1473] | 0.012 | – |
| COC(=O)[C@@H](C)Cn1c(=O)[nH]/c(=N\c2cnc(Oc3ccccc3)c(Cl)c2)n(Cc2ccc(C)cc2)c1=O [Compound I-1474] | 0.138 | – |
| COC(=O)[C@@H](C)Cn1c(=O)[nH]/c(=N\c2cnc(OC3CCCC3)c(Cl)c2)n(Cc2ccc(C)cc2)c1=O [Compound I-1475] | 0.039 | – |
| Cc1ccc(Cn2c(=O)n(C[C@H](C)C(=O)O)c(=O)[nH]/c2=N\c2cnc(Oc3ccccc3)c(Cl)c2)cc1 [Compound I-1476] | 0.262 | – |

| SMILES | IC50 [1] [µM] | IC50 [2] [µM] |
| --- | --- | --- |
| Cc1ccc(Cn2c(=O)n(C[C@H](C)C(=O)O)c(=O)[nH]/c2=N\c2cnc(OC3CCCC3)c(Cl)c2)cc1 [Compound I-1477] | 0.068 | – |
| COC(=O)[C@@H](C)Cn1c(=O)[nH]/c(=N\c2cnc(OC3CCC3)c(C)c2)n(Cc2ccc(C)cc2)c1=O [Compound I-1478] | 0.019 | – |
| COC(=O)[C@@H](C)Cn1c(=O)[nH]/c(=N\c2cnc(OC3CCC3)c(C)c2)n(Cc2ccc(Cl)cc2)c1=O [Compound I-1479] | – | 0.02 |
| COC(=O)C1(Cn2c(=O)[nH]/c(=N\c3ccc(OC(C)C)c(C)c3)n(Cc3ccc(Cl)cc3)c2=O)COC1 [Compound I-1480] | – | 0.002 |
| Cc1cc(/N=c2\[nH]c(=O)n(CC3(C(=O)O)COC3)c(=O)n2Cc2ccc(Cl)cc2)ccc1OC(C)C [Compound I-1481] | – | 0.039 |
| Cc1ccc(Cn2c(=O)n(C[C@H](C)C(=O)O)c(=O)[nH]/c2=N\c2cnc(OC3CCC3)c(C)c2)cc1 [Compound I-1482] | – | 0.098 |
| Cc1cc(/N=c2\[nH]c(=O)n(C[C@H](C)C(=O)O)c(=O)n2Cc2ccc(Cl)cc2)cnc1OC1CCC1 [Compound I-1483] | – | 0.087 |
| COC(=O)[C@H](C)Cn1c(=O)[nH]/c(=N\c2ccc(N3CCCCC3)cc2)n(Cc2ccc(Cl)cc2)c1=O [Compound I-1484] | – | 0.006 |
| Cc1ccc(Cn2c(=O)n(C[C@H](C)C(=O)O)c(=O)[nH]/c2=N\c2ccc(CC(C)C)c(Cl)c2)cn1 [Compound I-1485] | – | 0.235 |
| C[C@H](Cn1c(=O)[nH]/c(=N\c2ccc(N3CCCCC3)cc2)n(Cc2ccc(Cl)cc2)c1=O)C(=O)O [Compound I-1486] | – | 0.043 |
| COC(=O)[C@@H](C)Cn1c(=O)[nH]/c(=N\c2ccc(C3CC3)c(Cl)c2)n(Cc2ccc(C)cc2)c1=O [Compound I-1487] | – | 0.106 |
| COC(=O)[C@@H](C)Cn1c(=O)[nH]/c(=N\c2ccc(C3CC3)c(C3CC3)c2)n(Cc2ccc(C)cc2)c1=O [Compound I-1488] | – | 0.652 |
| Cc1ccc(Cn2c(=O)n(C[C@H](C)C(=O)O)c(=O)[nH]/c2=N\c2ccc(C3CC3)c(Cl)c2)cc1 [Compound I-1489] | – | 0.254 |
| C=C(C)c1ccc(/N=c2\[nH]c(=O)n(C[C@H](C)C(=O)OC)c(=O)n2Cc2ccc(C)cc2)cc1Cl [Compound I-1491] | – | 0.284 |
| C=C(C)c1ccc(/N=c2\[nH]c(=O)n(C[C@H](C)C(=O)O)c(=O)n2Cc2ccc(C)cc2)cc1Cl [Compound I-1492] | – | 0.461 |
| COC(=O)[C@@H](C)Cn1c(=O)[nH]/c(=N\c2ccc(C(C)C)c(Cl)c2)n(Cc2ccc(C)cc2)c1=O [Compound I-1493] | – | 0.444 |
| Cc1ccc(Cn2c(=O)n(C[C@H](C)C(=O)O)c(=O)[nH]/c2=N\c2ccc(C(C)C)c(Cl)c2)cc1 [Compound I-1494] | – | 0.571 |
| Cc1ccc(Cn2c(=O)n(CC3(C(=O)O)COC3)c(=O)[nH]/c2=N\c2ccc(OC(C)C)c(Cl)c2)cc1 [Compound I-1495] | – | 0.026 |
| Cc1ccc(Cn2c(=O)n(CC3(C(=O)O)COC3)c(=O)[nH]/c2=N\c2ccc(CC(C)C)c(Cl)c2)cc1 [Compound I-1496] | – | 0.009 |
| COC(=O)[C@@H](C)Cn1c(=O)[nH]/c(=N\c2cc(Cl)cc(Cl)c2)n(Cc2ccc(C)cc2)c1=O [Compound I-1497] | – | 0.619 |
| CCOCc1ccc(/N=c2\[nH]c(=O)n(C[C@H](C)C(=O)OC)c(=O)n2Cc2ccc(C)cc2)cc1Cl [Compound I-1498] | – | 0.022 |
| CCOc1c(Cl)cc(/N=c2\[nH]c(=O)n(C[C@H](C)C(=O)OC)c(=O)n2Cc2ccc(C)cc2)cc1Cl [Compound I-1499] | – | 0.019 |

| SMILES | IC50 [1] [µM] | IC50 [2] [µM] |
| --- | --- | --- |
| Cc1ccc(Cn2c(=O)n(C[C@H](C)C(=O)O)c(=O)[nH]/c2=N\c2cc(Cl)cc(Cl)c2)cc1 [Compound I-1500] | – | 0.897 |
| COCc1c(Cl)cc(/N=c2\[nH]c(=O)n(C[C@H](C)C(=O)O)c(=O)n2Cc2ccc(C)cc2)cc1Cl [Compound I-1501] | – | 0.011 |
| CCOCc1ccc(/N=c2\[nH]c(=O)n(C[C@H](C)C(=O)O)c(=O)n2Cc2ccc(C)cc2)cc1Cl [Compound I-1502] | – | 0.107 |
| CCOC(=O)CCn1c(=O)[nH]/c(=N\c2ccc3oc(CC)c(C)c3c2)n(Cc2ccc(Cl)cc2)c1=O [Compound I-1503] | – | 0.012 |
| CCOC(=O)CCn1c(=O)[nH]/c(=N\c2ccc3oc(CC)c(C)c3c2)n(Cc2ccc(C)cc2)c1=O [Compound I-1504] | – | 0.005 |
| CCOC(=O)CCn1c(=O)[nH]/c(=N\c2ccc3nc(CC)sc3c2)n(Cc2ccc(Cl)cc2)c1=O [Compound I-1505] | – | 0.004 |
| CCOC(=O)CCn1c(=O)[nH]/c(=N\c2ccc3nc(CC)sc3c2)n(Cc2ccc(C)cc2)c1=O [Compound I-1506] | – | 0.002 |
| CCc1oc2ccc(/N=c3\[nH]c(=O)n(CCC(=O)O)c(=O)n3Cc3ccc(Cl)cc3)cc2c1C [Compound I-1507] | – | 0.015 |
| CCc1oc2ccc(/N=c3\[nH]c(=O)n(CCC(=O)O)c(=O)n3Cc3ccc(C)cc3)cc2c1C [Compound I-1508] | – | 0.018 |
| CCc1nc2ccc(/N=c3\[nH]c(=O)n(CCC(=O)O)c(=O)n3Cc3ccc(Cl)cc3)cc2s1 [Compound I-1509] | – | 0.014 |
| CCc1nc2ccc(/N=c3\[nH]c(=O)n(CCC(=O)O)c(=O)n3Cc3ccc(C)cc3)cc2s1 [Compound I-1510] | – | 0.013 |
| COC(=O)[C@@H](C)Cn1c(=O)[nH]/c(=N\c2ccc(CC3CC3)c(Cl)c2)n(Cc2ccc(C)cc2)c1=O [Compound I-1511] | – | 0.029 |
| Cn1cc(Oc2ccc(/N=c3\[nH]c(=O)n(CCC(=O)O)c(=O)n3Cc3ccc(Cl)cc3)cc2)ccc1=O [Compound I-1512] | – | 0.013 |
| Cc1ccc(Cn2c(=O)n(C[C@H](C)C(=O)O)c(=O)[nH]/c2=N\c2ccc(CC3CC3)c(Cl)c2)cc1 [Compound I-1513] | – | 0.01 |
| COC(=O)[C@@H](C)Cn1c(=O)[nH]/c(=N\c2ccc(OC3CC3)cc2)n(Cc2ccc(C)cc2)c1=O [Compound I-1514] | – | 0.024 |
| COC(=O)[C@@H](C)Cn1c(=O)[nH]/c(=N\c2ccc(Oc3ccccc3)nc2)n(Cc2ccc(C)cc2)c1=O [Compound I-1515] | – | 0.157 |
| Cc1ccc(Cn2c(=O)n(C[C@H](C)C(=O)O)c(=O)[nH]/c2=N\c2ccc(OC3CC3)cc2)cc1 [Compound I-1516] | – | 0.049 |
| Cc1ccc(Cn2c(=O)n(C[C@H](C)C(=O)O)c(=O)[nH]/c2=N\c2ccc(Oc3ccccc3)nc2)cc1 [Compound I-1517] | – | 0.24 |
| CCOC(=O)CCn1c(=O)[nH]/c(=N\c2ccc3nc(C)sc3c2)n(Cc2ccc(Cl)cc2)c1=O [Compound I-1518] | – | 0.002 |
| CCOC(=O)CCn1c(=O)[nH]/c(=N\c2ccc3nc(C)sc3c2)n(Cc2ccc(C)cc2)c1=O [Compound I-1519] | – | 0.002 |
